Results as given in US20060069132A1, “Azolecarboxamide herbicides” (priority 2004, published 2006).

Columns and labels:
giant foxtail [1] = test: Test A pre-/postemergence herbicide test; assay type: in vivo, Setaria faberi
Procedure, shortened: (§1)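 Greenhouse injury scoring (0–100, complete control = 100) at approximately ten days follows simultaneous pre- and postemergence application. Soil received a directed spray after seeding; seedlings of 2–10 cm at the one- to two-leaf stage were sprayed to runoff.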

large crabgrass [2] = test: Test A pre-/postemergence herbicide test; assay type: in vivo, Digitaria sanguinalis
Procedure, shortened: as §1

pigweed = test: Test B pre-/postemergence herbicide test; assay type: in vivo, Amaranthus retroflexus; details: for Pigweed plant response rating: postemergence
Procedure, shortened: (§2)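 Seeds were planted and treated preemergence with compounds formulated in a non-phytotoxic solvent mixture containing surfactant, while plants at the 1- to 4-leaf stage (2 to 18 cm) received postemergence sprays. Flooded paddy plants were grown to the 2-leaf stage. After 13 to 15 days in a greenhouse, injury was visually rated 0–100 against untreated controls.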

lambsquarters = test: Test B pre-/postemergence herbicide test; assay type: in vivo, Chenopodium album; details: for Lambsquarters plant response rating: postemergence
Procedure, shortened: as §2

[3] = tested on: small flower umbrella sedge; test: Test B flooded paddy test; assay type: in vivo, Cyperus difformis; details: 1000 g ai/ha, scale 0 to 100 (0 no effect, 100 complete control)
Procedure, shortened: (§3)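 Postemergence plants were sprayed with formulated test chemicals at 2 to 18 cm height (1- to 4-leaf stage); paddy species were grown to the 2-leaf stage. After 13 to 15 days in a greenhouse, injury was rated visually against untreated controls on a 0–100 scale (0 = no effect, 100 = complete control).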

rice [4] = test: Test B flooded paddy test; assay type: in vivo, Oryza sativa; details: 1000 g ai/ha, scale 0 to 100 (0 no effect, 100 complete control)
Procedure, shortened: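 Visual ratings, 0 (no effect) to 100 (complete control), made versus controls after 13–15 d greenhouse. Paddy plants treated at 2-leaf stage; postemergence plants at 1- to 4-leaf stage, 2–18 cm tall.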

giant foxtail [5] = test: Test B pre-/postemergence herbicide test; assay type: in vivo, Setaria faberi; details: for Foxtail, Giant plant response rating: postemergence
Procedure, shortened: as §2

corn = test: Test B pre-/postemergence herbicide test; assay type: in vivo, Zea mays; details: for Corn plant response rating: postemergence
Procedure, shortened: as §2

rice [6] = test: Test B pre-/postemergence herbicide test; assay type: in vivo, Oryza sativa; details: 0 = no effect, 100 = complete control, preemergence
Procedure, shortened: as §2

wild oat = test: Test B postemergence herbicide test; assay type: in vivo, Avena fatua; details: postemergence
Procedure, shortened: (§4)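 Greenhouse test; postemergence application to plants at 1–4 leaves (2–18 cm); paddy species at 2 leaves; evaluated visually vs controls at 13–15 days; scale 0–100 (100 = complete control).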

barnyardgrass [7] = test: Test B flooded paddy test; assay type: in vivo, Echinochloa crus-galli; details: 1000 g ai/ha, scale 0 to 100 (0 no effect, 100 complete control)
Procedure, shortened: as §3

barnyardgrass [8] = test: Test B pre-/postemergence herbicide test; assay type: in vivo, Echinochloa crus-galli; details: for Barnyardgrass plant response rating: postemergence
Procedure, shortened: as §2

morningglory [9] = test: Test B pre-/postemergence herbicide test; assay type: in vivo, Ipomoea coccinea; details: for Morningglory plant response rating: postemergence
Procedure, shortened: as §2

cocklebur = test: Test B pre-/postemergence herbicide test; assay type: in vivo, Xanthium strumarium; details: for Cocklebur plant response rating: postemergence
Procedure, shortened: as §2

large crabgrass [10] = test: Test B pre-/postemergence herbicide test; assay type: in vivo, Digitaria sanguinalis; details: for Crabgrass, Large plant response rating: postemergence
Procedure, shortened: as §2

blackgrass = test: Test B postemergence herbicide test; assay type: in vivo, Alopecurus myosuroides; details: postemergence
Procedure, shortened: as §3

redroot pigweed = test: Test A pre-/postemergence herbicide test; assay type: in vivo, Amaranthus retroflexus
Procedure, shortened: as §1

barnyardgrass [11] = test: Test A pre-/postemergence herbicide test; assay type: in vivo, Echinochloa crus-galli
Procedure, shortened: as §1

velvetleaf [12] = test: Test B pre-/postemergence herbicide test; assay type: in vivo, Abutilon theophrasti; details: for Velvetleaf plant response rating: postemergence
Procedure, shortened: as §2

wheat = test: Test B postemergence herbicide test; assay type: in vivo, Triticum aestivum; design: key to Wheat plant response rating: 0 = no effect, 100 = complete control; details: postemergence
Procedure, shortened: as §4

velvetleaf [13] = test: Test A pre-/postemergence herbicide test; assay type: in vivo, Abutilon theophrasti
Procedure, shortened: as §1

ducksalad = test: Test B flooded paddy test; assay type: in vivo, Heteranthera limosa; details: 1000 g ai/ha, scale 0 to 100 (0 no effect, 100 complete control)
Procedure, shortened: as §3

morningglory [14] = test: Test A pre-/postemergence herbicide test; assay type: in vivo, Ipomoea spp.
Procedure, shortened: as §1

Surinam grass = test: Test B pre-/postemergence herbicide test; assay type: in vivo, Urochloa decumbens; details: for Surinam Grass plant response rating: postemergence
Procedure, shortened: as §2

[15] = Postemergence, 500 g ai/ha, 0 to 100 scale, 0 no effect, 100 complete control
[16] = Postemergence, 2000 g ai/ha, 0 to 100 scale, 0 no effect, 100 complete control
[17] = Preemergence, 2000 g ai/ha, visual rating, 0 to 100 scale (0 no effect, 100 complete control)
[18] = preemergence, 500 g ai/ha, visual injury, 0 to 100 scale (0 no effect, 100 complete control)
[19] = 125 g ai/ha, 0 = no effect, 100 = complete control, preemergence
[20] = 125 g ai/ha, visual rating, scale 0 (no effect) to 100 (complete control)
[21] = 500 g ai/ha, visual rating, 0 = no effect, 100 = complete control, preemergence
[22] = 500 g ai/ha, scale 0 to 100, 0 is no effect, 100 is complete control

CCNC(=O)c1cncc(NC(=O)c2cc(C(C)(C)C)nn2CC)n1 [Compound 288]
Foxtail, Giant plant response rating (giant foxtail [1]; [15]): 0 | Plant response rating, Foxtail, Giant (giant foxtail [1]; [16]): 10 | Foxtail, Giant plant response rating (giant foxtail [1]; [17]): 75 | Foxtail, Giant plant response rating (giant foxtail [1]; [18]): 15 | Crabgrass, Large plant response rating (large crabgrass [2]; [15]): 0 | Plant response rating, Crabgrass, Large (large crabgrass [2]; [16]): 15 | Crabgrass, Large plant response rating (large crabgrass [2]; [17]): 10 | Crabgrass, Large plant response rating (large crabgrass [2]; [18]): 0 | Pigweed plant response rating (0 to 100 scale) (pigweed; [19]): 0 | Pigweed plant response rating (pigweed; [20]): 10 | Plant response rating, Pigweed (pigweed; [21]): 90 | Pigweed plant response rating (pigweed; [22]): 20 | Lambsquarters plant response rating (0 to 100 scale) (lambsquarters; [19]): 0 | Lambsquarters plant response rating (lambsquarters; [20]): 0 | Plant response rating, Lambsquarters (lambsquarters; [21]): 90 | Lambsquarters plant response rating (lambsquarters; [22]): 30 | Sedge, Umbrella plant response rating [3]: 60 | Rice plant response rating (rice [4]): 0 | Foxtail, Giant plant response rating (0 to 100 scale) (giant foxtail [5]; [19]): 0 | Foxtail, Giant plant response rating (giant foxtail [5]; [20]): 0 | Plant response rating, Foxtail, Giant (giant foxtail [5]; [21]): 10 | Foxtail, Giant plant response rating (giant foxtail [5]; [22]): 30 | Corn plant response rating (0 to 100 scale) (corn; [19]): 0 | Corn plant response rating (corn; [20]): 0 | Plant response rating, Corn (corn; [21]): 0 | Corn plant response rating (corn; [22]): 0 | Rice plant response rating (0 to 100 scale) (rice [6]; 125 g ai/ha): 0 | Plant response rating, Rice (rice [6]; 500 g ai/ha, visual rating): 70 | Oat, Wild plant response rating (wild oat; [20]): 20 | Oat, Wild plant response rating (wild oat; [22]): 40 | Barnyardgrass plant response rating (barnyardgrass [7]): 0 | Barnyardgrass plant response rating (0 to 100 scale) (barnyardgrass [8]; [19]): 0 | Barnyardgrass plant response rating (barnyardgrass [8]; [20]): 0 | Plant response rating, Barnyardgrass (barnyardgrass [8]; [21]): 70 | Barnyardgrass plant response rating (barnyardgrass [8]; [22]): 0 | Morningglory plant response rating (0 to 100 scale) (morningglory [9]; [19]): 0 | Morningglory plant response rating (morningglory [9]; [20]): 0 | Plant response rating, Morningglory (morningglory [9]; [21]): 0 | Morningglory plant response rating (morningglory [9]; [22]): 0 | Cocklebur plant response rating (0 to 100 scale) (cocklebur; [19]): 0 | Cocklebur plant response rating (cocklebur; [20]): 0 | Plant response rating, Cocklebur (cocklebur; [21]): 0 | Cocklebur plant response rating (cocklebur; [22]): 0 | Crabgrass, Large plant response rating (0 to 100 scale) (large crabgrass [10]; [19]): 0 | Crabgrass, Large plant response rating (large crabgrass [10]; [20]): 0 | Plant response rating, Crabgrass, Large (large crabgrass [10]; [21]): 0 | Crabgrass, Large plant response rating (large crabgrass [10]; [22]): 0 | Blackgrass plant response rating (blackgrass; [20]): 20 | Blackgrass plant response rating (blackgrass; [22]): 20 | Pigweed plant response rating (redroot pigweed; [15]): 20 | Plant response rating, Pigweed (redroot pigweed; [16]): 40 | Pigweed plant response rating (redroot pigweed; [17]): 70 | Pigweed plant response rating (redroot pigweed; [18]): 25 | Barnyardgrass plant response rating (barnyardgrass [11]; [15]): 5 | Plant response rating, Barnyardgrass (barnyardgrass [11]; [16]): 65 | Barnyardgrass plant response rating (barnyardgrass [11]; [17]): 75 | Barnyardgrass plant response rating (barnyardgrass [11]; [18]): 20 | Velvetleaf plant response rating (velvetleaf [12]; [20]): 10 | Plant response rating, Velvetleaf (velvetleaf [12]; [21]): 0 | Velvetleaf plant response rating (velvetleaf [12]; [22]): 20 | Wheat plant response rating (wheat; [20]): 20 | Wheat plant response rating (wheat; [22]): 30 | Velvetleaf plant response rating (velvetleaf [13]; [15]): 20 | Plant response rating, Velvetleaf (velvetleaf [13]; [16]): 20 | Velvetleaf plant response rating (velvetleaf [13]; [17]): 40 | Velvetleaf plant response rating (velvetleaf [13]; [18]): 10 | Ducksalad plant response rating (ducksalad): 0 | Morningglory plant response rating (morningglory [14]; [15]): 20 | Plant response rating, Morningglory (morningglory [14]; [16]): 20 | Morningglory plant response rating (morningglory [14]; [17]): 30 | Morningglory plant response rating (morningglory [14]; [18]): 5 | Surinam Grass plant response rating (0 to 100 scale) (Surinam grass; [19]): 0 | Surinam Grass plant response rating (Surinam grass; [20]): 0 | Plant response rating, Surinam Grass (Surinam grass; [21]): 0 | Surinam Grass plant response rating (Surinam grass; [22]): 0
